Source: patent US20070185150A1, “Therapeutic methods” (priority 2005, published 2007)

Tests used:
[1] = Phase I dose escalation trial of oral AP23573: safety, tolerability and maximum tolerated dose; assay type: in vivo, patients
Source text: Background: In phase I clinical trials with an intravenous (IV) formulation of the mTOR inhibitor, AP23573, the drug was well-tolerated and active in a broad range of cancers. This trial is undertaken to assess the safety, tolerability and maximum tolerated dose (MTD) of an orally administered dosage form of AP23573. Secondary objectives include characterization of the pharmacokinetic (PK) and pharmacodynamic (PD) profiles of AP23573, as well as antitumor activity.
(§1) Methods: Eligible patients (in cohorts of at least 3 patients) initially are randomized at the same flat, fixed starting dose of 20 mg/day into one of three 28-day dosing schedules, i.e. once daily continuous dosing for 4 days every week (QD×4), 21 of 28 days (QD×21), or all 28 days (QD×28). The subsequent dose level is determined based on review of safety and tolerability during Cycle 1 and enrollment for each schedule proceeds independently. Antitumor activity is assessed every 2 cycles. Whole blood is collected for PK assessment and peripheral blood mononuclear cells collected for PD assessment of the levels of phosphorylated 4E-BP1, a downstream target of mTOR.

[2] = Phase I trial of oral AP23573: whole blood PK assessment; assay type: in vivo, patients; settings: three schedules, 20 mg/day, Day 1 of Cycle 1, preliminary PK analysis
Description: as §1

[3] = tested on: phosphorylated 4E-BP1, a downstream target of mTOR; assay: Phase I trial of oral AP23573: PD assessment of phosphorylated 4E-BP1 levels in peripheral blood mononuclear cells; assay type: in vivo, patients
Description: as §1

[4] = tested on: refractory or advanced malignancies; assay: Phase I trial of oral AP23573: antitumor activity assessed every 2 cycles; assay type: in vivo, patients
Description: as §1

[5] = tested on: sarcoma and other tumors; assay: Additional clinical studies of oral AP23573 on QD×5 schedule: anti-tumor activity (Clinical Benefit Response); assay type: in vivo, patients; settings: QD×5 schedules
Description: (§2) Additional clinical studies of AP23573 were conducted using a QD×5 dosing schedule for the delivery of 30, 40 or 50 mg of AP23573/day. A set of patients receiving the 30 mg and 50 mg doses were also given a loading dose on the first day of each week, which doubled the dose that day to 60 and 100 mg, respectively.
(§3) Methods: In a Phase 1/2a trial of single-agent oral AP23573, 17 patients, 9 of whom are sarcoma patients, were studied at the chosen dose and schedule (40 mg QD×5). In addition, of 7 patients who began dosing at 50 mg QD×5, 4 patients (2 of whom are sarcoma patients) underwent dose reduction to 40 mg. Twenty-one patients, therefore, received 40 mg QD×5, of whom 11 are sarcoma patients.
(§4) In another QD×5 study in which the dose on day 1 of each week was doubled (to comprise a loading dose), 7 patients (6 sarcoma patients) received doses of 60, 30, 30, 30 and 30 mg over each week (i.e., 30 mg QD×5, with the dose on day 1 doubled). Five other patients (2 sarcoma patients) received 50 mg QD×5, with the dose on day 1 doubled to 100 mg.
(§5) Overall, 36 patients were dosed on a QD×5 schedule, of whom 12 received loading doses on day 1 of each week.

[6] = Additional clinical studies of oral AP23573 on QD×5 schedule: tolerability; assay type: in vivo
Description: as §2, §3, §4, §5

Compound: CO[C@H]1C[C@@H]2CC[C@@H](C)[C@@](O)(O2)C(=O)C(=O)N2CCCC[C@H]2C(=O)O[C@H]([C@H](C)C[C@@H]2CC[C@@H](OP(C)(C)=O)[C@H](OC)C2)CC(=O)[C@H](C)/C=C(\C)[C@@H](O)[C@@H](OC)C(=O)[C@H](C)C[C@H](C)/C=C/C=C/C=C/1C [AP23573]
- dose-limiting toxicity (DLT) ([1]; QD×4 20 mg/day cohort): no dose-limiting toxicity (DLT) was reported
- dose-limiting toxicity (DLT) ([1]; QD×4 30 mg/day schedule): no DLTs
- side effects ([1]; QD×4 60 and 70 mg/day cohort): side effects were reported
- maximum tolerated daily dose ([1]; QD×4 schedule): 50 mg/day
- dose-limiting toxicity (DLT) ([1]; QD×21 cohort, 20 mg/day): severe stomatitis and fatigue
- maximum tolerated daily dose ([1]; QD×21 schedule): 10 mg/day
- dose-limiting toxicity (DLT) ([1]; QD×28 cohort, 20 mg/day): severe stomatitis and fatigue
- maximum tolerated daily dose ([1]; QD×28 schedule): 15 mg/day
- severity of adverse events related to AP23573 during Cycle 1 ([1]; three schedules): mild or moderate in severity, reversible
- adverse events related to AP23573 during Cycle 1 in at least 2 patients ([1]; three schedules, 10 to 30 mg/day): mucositis, fatigue, rash, diarrhea, anorexia, and nausea
- Cmax range [2]: 77 to 163 ng/mL
- median Cmax [2]: 98.5 ng/mL
- reduction of phosphorylated 4E-BP1 levels ([3]; 1 day after dosing): > 80%
- phosphorylated 4E-BP1 levels during the dosing period ([3]; during the dosing period): remain reduced during the dosing period
- antitumor activity (decrease) ([4]; patient with metastatic breast carcinoma, qd×4, 20 mg/day cohort): 22%
- antitumor activity (decrease) ([4]; patient with metastatic renal cell carcinoma, qd×21, 20 mg/day cohort): 21%
- disease status ([4]; patient with soft tissue sarcoma, QD×4, 20 mg/day cohort, after 2 cycles): stable disease
- evaluable sarcoma patients that were CBRs [5]: 43%
- patients achieving a Clinical Benefit Response (CBR) ([5]; of the 26 evaluable patients): Seven
- side-effects ([6]; 40 mg QD×5): generally mild or moderate and manageable
- tolerability of dose level ([6]; 50 mg QD×5 with the dose on day 1 doubled to 100 mg): exceed the maximum tolerated dose
